In patent US6433005B1, “Benzofuran and benzothiophene derivatives as anti-inflammatory agents” (Syntex (U.S.A.) LLC, priority 2000, dated 2002):

Legend:
[1] = target: T1, COX I (Homo sapiens, UniProt P23219); test: Inhibition of COX I in vitro, radiometric assay with partially purified enzyme; type: biochemical; conditions: 10 min preincubation, 20 micromolar [14C] arachidonic acid
T1 construct: made in house
Procedure: (§1) The COX I and COX II inhibitory activity of compounds of this invention in vitro was determined using partially purified COX I and COX II enzymes, prepared as described in J. Bamett et al., Biochim. Biophys. Acta, 1209,130-139 (1994).
(§2) COX I and COX II samples were diluted with Tris-HCl buffer (50 mM Tris-HCl, pH 7.9) containing 2 mM EDTA and 10% glycerol and reconstituted by incubating first with 2 mM phenol for 5 minutes and then with 1 micromolar hematin for an additional 5 minutes. 125 μL of the reconstituted COX I or COX II enzyme were preincubated for 10 minutes at room temperature in a shaking water bath with the compounds of the invention dissolved in 2-15 μL of DMSO or the carrier vehicles (control samples). The enzyme reaction was initiated by adding 25 μL of 1-[14 C] arachidonic acid (80,000-100,000 cpm/tube; 20 micromolar final concentration) and the reaction was allowed to continue for an additional 45 seconds. The reaction was terminated by adding 100 μL is of 2N HCl and 750 μL water. An aliquot (950 μL) of the reaction mixture was loaded onto a 1 mL C18 Sep-Pak column (J. T. Baker, Phillipsburg, N.J.) which had been previously washed with 2-3 mL methanol and equilibrated with 5-6 mL distilled water. Oxygenated products were quantitatively eluted with 3 mL of acetonitrile/water/acetic acid (50:50:0.1, v/v) and the radioactivity in the eluate determined in a scintillation counter. Compounds of this invention were active in this assay for COX II.
(§3) The COX inhibitory activities (expressed as IC50, the concentration causing 50% inhibition of the COX enzyme being assayed) of some exemplary compounds of the invention were: […]

[2] = target: T2, COX II (Homo sapiens, UniProt P35354); test: Inhibition of COX II in vitro, radiometric assay with partially purified enzyme; type: biochemical; conditions: 10 min preincubation, 20 micromolar [14C] arachidonic acid
T2 construct: made in house
T2 sequence (P35354 18-604): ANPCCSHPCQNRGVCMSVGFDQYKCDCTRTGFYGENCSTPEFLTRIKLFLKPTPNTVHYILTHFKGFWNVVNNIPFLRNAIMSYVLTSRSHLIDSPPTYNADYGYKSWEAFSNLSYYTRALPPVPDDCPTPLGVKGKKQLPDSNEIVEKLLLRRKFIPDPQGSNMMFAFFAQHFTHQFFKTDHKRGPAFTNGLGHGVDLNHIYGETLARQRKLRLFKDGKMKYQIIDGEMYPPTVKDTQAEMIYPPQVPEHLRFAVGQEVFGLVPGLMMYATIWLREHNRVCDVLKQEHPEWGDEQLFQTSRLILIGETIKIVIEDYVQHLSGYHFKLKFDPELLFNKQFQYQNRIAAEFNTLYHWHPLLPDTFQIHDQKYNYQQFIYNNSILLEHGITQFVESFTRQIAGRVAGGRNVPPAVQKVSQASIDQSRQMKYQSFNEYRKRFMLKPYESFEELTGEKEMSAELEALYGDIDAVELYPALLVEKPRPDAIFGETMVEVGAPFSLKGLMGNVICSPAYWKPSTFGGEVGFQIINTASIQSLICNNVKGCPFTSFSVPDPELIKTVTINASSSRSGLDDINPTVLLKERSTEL
Procedure: as §1, §2, §3

T1 sequence (P23219 24-599): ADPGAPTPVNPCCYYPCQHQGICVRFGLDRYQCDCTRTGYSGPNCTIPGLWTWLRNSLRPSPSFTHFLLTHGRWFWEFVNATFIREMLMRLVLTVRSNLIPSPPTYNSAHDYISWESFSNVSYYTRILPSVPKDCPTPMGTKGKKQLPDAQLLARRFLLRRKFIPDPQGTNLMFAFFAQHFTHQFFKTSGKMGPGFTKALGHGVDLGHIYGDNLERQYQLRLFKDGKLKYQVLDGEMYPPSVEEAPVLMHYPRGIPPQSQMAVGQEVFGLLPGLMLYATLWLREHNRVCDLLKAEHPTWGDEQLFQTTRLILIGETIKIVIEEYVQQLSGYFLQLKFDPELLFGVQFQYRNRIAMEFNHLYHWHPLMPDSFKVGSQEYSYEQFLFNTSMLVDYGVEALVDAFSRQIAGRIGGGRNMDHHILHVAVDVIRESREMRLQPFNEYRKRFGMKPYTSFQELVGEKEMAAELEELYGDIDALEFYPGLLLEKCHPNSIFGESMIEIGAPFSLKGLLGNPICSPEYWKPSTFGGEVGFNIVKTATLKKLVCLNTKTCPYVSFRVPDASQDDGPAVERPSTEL

SMILES: CS(=O)(=O)c1ccc2c(Sc3ccccc3Cl)c(C#N)sc2c1 [Cpd 17, 3-(2-chloro-phenylsulfanyl)-6-methanesulfonyl-benzo[b]thiophene-2-carbonitrile]
- IC50 [1]: > 120 µM
- IC50 [2]: < 1 µM

SMILES: CCOc1ccc(Oc2c(C#N)sc3cc(S(C)(=O)=O)ccc23)cc1 [Cpd 31, 3-(4-ethoxy-phenoxy)-6-methanesulfonyl-benzo[b]thiophene-2-carbonitrile]
- IC50 [1]: > 120 µM
- IC50 [2]: < 1.5 µM

SMILES: CS(=O)(=O)c1ccc2c(Sc3ccc(Cl)cc3Cl)c(C#N)sc2c1 [Cpd 19, 3-(2,4-dichloro-phenylsulfanyl)-6-methanesulfonyl-benzo[b]thiophene-2-carbonitrile]
- IC50 [1]: > 120 µM
- IC50 [2]: < 1.5 µM

SMILES: CS(=O)(=O)c1ccc2c(Sc3ccc(F)cc3)c(C#N)sc2c1 [Cpd 26, 3-(4-fluoro-phenylsulfanyl)-6-methanesulfonyl-benzo[b]thiophene-2-carbonitrile]
- IC50 [1]: > 120 µM
- IC50 [2]: < 1.5 µM

SMILES: CS(=O)(=O)c1ccc2c(Sc3ccccc3F)c(C#N)sc2c1 [Cpd 30, 3-(2-fluoro-phenylsulfanyl)-6-methanesulfonyl-benzo[b]thiophene-2-carbonitrile]
- IC50 [1]: > 120 µM
- IC50 [2]: < 1.2 µM
